Source: US20100010039A1, “POLYMORPHIC CRYSTAL FORM OF A INDAN-2-YLAMINO-HYDROXYETHYL-QUINOLINONE MALEATE DERIVATIVE AS BETA-ADRENOCEPTOR AGONIST” (priority 2006, published 2010)
Counter-ions that a name gives are not always drawn. Marks after values point to notes of the source that are not given here.

Legend:
Type in all cases: physicochemical
[1] = Stress testing: 1 month, 60° C. open container, relative humidity <30% (physico-chemical stability comparison); settings: for Assay (HPLC), 1 month / Related substances (HPLC), 1 month / TG (moisture content), 1 month / XRPD (identity of the material), 1 month: after 1 month, 60° C. open, R.H. <30%; for Assay (HPLC), 1 month / Related substances (HPLC), 1 month / TG (moisture content), 1 month / XRPD (identity of the material), 1 month / Related substances (HPLC), Initial / Assay (HPLC), Initial / TG (moisture content), Initial / XRPD (identity of the material), Initial / Proneness to degradation on storage (in words): maleate; for Related substances (HPLC), Initial / Assay (HPLC), Initial / TG (moisture content), Initial / XRPD (identity of the material), Initial: before storage; for Related substances (HPLC), Initial: Qalpha value from release analysis, Amorphous value from recontrol analysis; for Assay (HPLC), Initial / TG (moisture content), Initial / XRPD (identity of the material), Initial: release / recontrol analysis; for Proneness to degradation on storage (in words): summary of both stress tests (Tables 5 and 6), 1 month, 60° C.
Description: (§1) Samples of crystal form Qalpha and amorphous (R)-5-[2-(5,6-diethyl-indan-2-ylamino)-1-hydroxyethyl]-8-hydroxy-1H-quinolin-2-one maleate are stress tested before and after storage for 1 month to provide for physico-chemical stability comparison.
(§2) In a first test the samples are stored at 60° C. in an open container with a relative humidity <30%. In a second test the samples are stored at 60° C. in an open container with a relative humidity of about 75%. The results are shown in Tables 5 and 6 below respectively.
(§3) The tests determine (a) purity and (b) assay as determined by high performance liquid chromatography (HPLC) using HP1100 from Agillent with a YMC-packs ODS-AQ 3 μm column; (c) identity of the material as determined by the X-ray diffraction pattern measured using a SCINTAG™ X-ray diffractometer with a CuK alpha radiation source (45 kV, 40 mA); and (d) moisture content determined using a TGA851e Mettler Toledo STAR System thermogravimetry analysis balance with nitrogen flow 50 ml/min.

[2] = Stress testing: 1 month, 60° C./75% RH open container (physico-chemical stability comparison); settings: for XRPD (identity of the material), 1 month / Assay (HPLC), 1 month / Related substances (HPLC), 1 month / TG (moisture content), 1 month: after 1 month, 60° C./75% RH open; for Assay (HPLC), 1 month / Related substances (HPLC), 1 month / TG (moisture content), 1 month / Assay (HPLC), Initial / Related substances (HPLC), Initial / TG (moisture content), Initial / XRPD (identity of the material), Initial: maleate; for Assay (HPLC), Initial / Related substances (HPLC), Initial / TG (moisture content), Initial / XRPD (identity of the material), Initial: before storage, release / recontrol analysis
Description: as §1, §2, §3

[3] = Solubility behaviour / kinetic of dissolution in comparison to the amorphous part

CCc1cc2c(cc1CC)CC(NC[C@H](O)c1ccc(O)c3[nH]c(=O)ccc13)C2 [Amorphous, (R)-5-[2-(5,6-diethyl-indan-2-ylamino)-1-hydroxyethyl]-8-hydroxy-1H-quinolin-2-one maleate, reference compound]
Assay (HPLC), 1 month [1]: 91.5%
Related substances (HPLC), 1 month [1]: 4.3%
TG (moisture content), 1 month [1]: 0.74%
XRPD (identity of the material), 1 month [1]: Amorphous
Related substances (HPLC), Initial [1]: 0.22%#
Assay (HPLC), Initial [1]: 99.7%#
TG (moisture content), Initial [1]: 1.8%#
XRPD (identity of the material), Initial [1]: Amorphous#
Proneness to degradation on storage (in words) ([1]; listed as amorphous material): more prone to degradation than Qalpha
XRPD (identity of the material), 1 month [2]: Qalpha
Assay (HPLC), 1 month [2]: 98.9%
Related substances (HPLC), 1 month [2]: 0.73%
TG (moisture content), 1 month [2]: 0.23%
Assay (HPLC), Initial [2]: 99.7%#
Related substances (HPLC), Initial [2]: 0.22%#
TG (moisture content), Initial [2]: 1.8%#
XRPD (identity of the material), Initial [2]: Amorphous#
Conversion of solid form on storage (in words) ([2]; stored at 60° C./75% R.H.): converts to crystal form Qalpha

CCc1cc2c(cc1CC)CC(NC[C@H](O)c1ccc(O)c3[nH]c(=O)ccc13)C2 [Qalpha, (R)-5-[2-(5,6-diethyl-indan-2-ylamino)-1-hydroxyethyl]-8-hydroxy-1H-quinolin-2-one maleate]
Assay (HPLC), 1 month [1]: 98.8%
Related substances (HPLC), 1 month [1]: 0.25%
TG (moisture content), 1 month [1]: <0.05%
XRPD (identity of the material), 1 month [1]: Qalpha
Related substances (HPLC), Initial [1]: 0.23%*
Assay (HPLC), Initial [1]: 100.2%*
TG (moisture content), Initial [1]: 0.07%*
XRPD (identity of the material), Initial [1]: Qalpha*
Changes after storage (in words) ([1]; storage for 1 month, both stress tests): No significant changes
Proneness to degradation on storage (in words) ([1]; listed as crystal form Qalpha): less prone to degradation or conversion than the amorphous form on storage
Solubility behaviour: kinetic of dissolution (in words) [3]: lower kinetic of dissolution
XRPD (identity of the material), 1 month [2]: Qalpha
Assay (HPLC), 1 month [2]: 99.5%
Related substances (HPLC), 1 month [2]: 0.26%
TG (moisture content), 1 month [2]: <0.05%
Assay (HPLC), Initial [2]: 100.2%*
Related substances (HPLC), Initial [2]: 0.23%*
TG (moisture content), Initial [2]: 0.07%*
XRPD (identity of the material), Initial [2]: Qalpha*
